Experimental findings from US9012489B2, “Phenyl-3-aza-bicyclo[3.1.0]hex-3-yl-methanones and the use thereof as medicament” (Boehringer Ingelheim International GmbH, priority 2011, dated 2015) are described below.

As a reminder, the IC50 is the concentration that inhibits the measured activity by half. A lower IC50 goes with greater potency in that assay.

The target in this test is T1, GlyT1 transporter (Homo sapiens, UniProt P48067).
T1 construct: endogenously expressing the GlyT1 transporter; host or cells: SK-N-MC human neuroblastoma cells
T1 sequence (P48067 1-706): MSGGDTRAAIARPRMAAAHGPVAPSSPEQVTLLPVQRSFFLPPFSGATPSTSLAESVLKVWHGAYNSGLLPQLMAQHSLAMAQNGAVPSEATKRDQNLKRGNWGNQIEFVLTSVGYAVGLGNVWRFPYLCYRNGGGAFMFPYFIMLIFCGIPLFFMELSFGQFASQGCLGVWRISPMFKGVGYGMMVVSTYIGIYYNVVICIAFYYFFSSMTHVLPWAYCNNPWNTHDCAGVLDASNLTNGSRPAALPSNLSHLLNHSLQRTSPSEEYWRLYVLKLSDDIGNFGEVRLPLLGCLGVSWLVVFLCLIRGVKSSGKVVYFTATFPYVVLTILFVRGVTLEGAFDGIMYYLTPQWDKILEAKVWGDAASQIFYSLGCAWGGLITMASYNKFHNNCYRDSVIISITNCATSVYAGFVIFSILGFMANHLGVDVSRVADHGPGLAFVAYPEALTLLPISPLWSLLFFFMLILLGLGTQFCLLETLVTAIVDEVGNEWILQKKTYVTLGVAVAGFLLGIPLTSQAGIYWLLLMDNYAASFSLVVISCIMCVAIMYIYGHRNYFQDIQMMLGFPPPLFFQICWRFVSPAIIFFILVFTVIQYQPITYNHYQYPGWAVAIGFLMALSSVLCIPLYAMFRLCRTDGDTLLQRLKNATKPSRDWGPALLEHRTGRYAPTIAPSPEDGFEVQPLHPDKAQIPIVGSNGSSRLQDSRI
The experiment in a line: GlyT1 assay: 3H-glycine uptake into SK-N-MC cells (Cytostar-T format). The format is cell-based. As to conditions: glycine uptake in human SK-N-MC cells endogenously expressing GlyT1; 500 nM glycine, 1% DMSO, signal recorded over 60 min. Summed up:
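Endogenous GlyT1 in human SK-N-MC cells, confluent after 16-18 h, in HBSS with 5 mM alanine. Compounds preincubated about 5-10 min, then 500 nM glycine (half ³H) added, 1% DMSO. Scintillation-proximity uptake recorded kinetically over 60 min; IC50 from linear-range slopes over 8 concentrations, nonspecific uptake defined with 10 μM RG-1678.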
For `C[C@H](Oc1ccc(S(C)(=O)=O)cc1C(=O)N1CC2CC2(c2ncc(C(F)(F)F)o2)C1)C(F)(F)F` (single isomer, unassigned) [Example 132, [5-Methanesulfonyl-2-(2,2,2-trifluoro-1-methyl-ethoxy)-phenyl]-[1-(5-trifluoromethyl-oxazol-2-yl)-3-aza-bicyclo[3.1.0]hex-3-yl]-methanone], the IC50 came to 3 nM.
With `C[C@@H](Oc1ccc(S(C)(=O)=O)cc1C(=O)N1CC2CC2(c2nnc(C3(C(F)(F)F)CC3)o2)C1)C(F)(F)F` (single isomer, unassigned) [Example 150, [5-Methanesulfonyl-2-(2,2,2-trifluoro-1-methyl-ethoxy)-phenyl]-{1-[5-(1-trifluoromethyl-cyclopropyl)-[1,3,4]oxadiazol-2-yl]-3-aza-bicyclo[3.1.0]hex-3-yl}-methanone], the IC50 is 232 nM.
To `C[C@@H](Oc1ccc(S(C)(=O)=O)cc1C(=O)N1CC2CC2(c2cc(C(F)(F)F)on2)C1)C(F)(F)F` (mixture of isomers) [Example 49, [5-Methanesulfonyl-2-(2,2,2-trifluoro-1-methyl-ethoxy)-phenyl]-[1-(5-trifluoromethyl-isoxazol-3-yl)-3-aza-bicyclo[3.1.0]hex-3-yl]-methanone] belongs 19 nM.
Consider `C[C@H](Oc1ccc(S(C)(=O)=O)cc1C(=O)N1CC2CC2(c2nnc(C3(C(F)(F)F)CC3)o2)C1)C(F)(F)F` (mixture of isomers) [Example 151, [5-Methanesulfonyl-2-(2,2,2-trifluoro-1-methyl-ethoxy)-phenyl]-{1-[5-(1-trifluoromethyl-cyclopropyl)-[1,3,4]oxadiazol-2-yl]-3-aza-bicyclo[3.1.0]hex-3-yl}-methanone], for which half-maximal inhibition (IC50) required 10 nM. This IC50 is about 1.9-fold lower than that of the compound before.
The compound `C[C@H](Oc1ccc(S(C)(=O)=O)cc1C(=O)N1CC2CC2(C2=NCC(C(F)(F)F)O2)C1)C(F)(F)F` (mixture of isomers) [Example 57, [5-Methanesulfonyl-2-(2,2,2-trifluoro-1-methyl-ethoxy)-phenyl]-[1-(5-trifluoromethyl-4,5-dihydro-oxazol-2-yl)-3-aza-bicyclo[3.1.0]hexyl-3-yl]-methanone] showed an IC50 of 354 nM. This IC50 lies about 35-fold higher than the previous one.
On to `C[C@@H](Oc1ccc(S(C)(=O)=O)cc1C(=O)N1CC2CC2(c2noc(C(F)(F)F)n2)C1)C(F)(F)F` (single isomer, unassigned) [Example 5, [5-Methanesulfonyl-2-(2,2,2-trifluoro-1-methyl-ethoxy)-phenyl]-[1-(5-trifluoromethyl-[1,2,4]oxadiazol-3-yl)-3-aza-bicyclo[3.1.0]hex-3-yl]-methanone], for which the IC50 turned out to be 1380 nM. Against the preceding compound, the IC50 is about 3.9-fold higher.
For `Cc1nc(C23CC2CN(C(=O)c2cc(S(C)(=O)=O)ccc2O[C@@H](C)C(F)(F)F)C3)no1` (single isomer, unassigned) [Example 7, [5-Methanesulfonyl-2-(2,2,2-trifluoro-1-methyl-ethoxy)-phenyl]-[1-(5-methyl-[1,2,4]oxadiazol-3-yl)-3-aza-bicyclo[3.1.0]hex-3-yl]-methanone], the midpoint of inhibition, the IC50, lay at 4 nM.
To `Cc1nc(C23CC2CN(C(=O)c2cc(S(C)(=O)=O)ccc2O[C@@H](C)C(F)(F)F)C3)no1` (single isomer, unassigned) [Example 8, [5-Methanesulfonyl-2-(2,2,2-trifluoro-1-methyl-ethoxy)-phenyl]-[1-(5-methyl-[1,2,4]oxadiazol-3-yl)-3-aza-bicyclo[3.1.0]hex-3-yl]-methanone] belongs 474 nM; to `C[C@@H](Oc1ccc(S(C)(=O)=O)cc1C(=O)N1CC2CC2(c2nnc(C3(C(F)(F)F)CC3)o2)C1)C(F)(F)F` (mixture of isomers) [Example 148, [5-Methanesulfonyl-2-(2,2,2-trifluoro-1-methyl-ethoxy)-phenyl]-{1-[5-(1-trifluoromethyl-cyclopropyl)-[1,3,4]oxadiazol-2-yl]-3-aza-bicyclo[3.1.0]hex-3-yl}-methanone], 9 nM; to `Cc1nnc(C23CC2CN(C(=O)c2cc(S(C)(=O)=O)ccc2O[C@@H](C)C(F)(F)F)C3)o1` (mixture of isomers) [Example 38, [5-Methanesulfonyl-2-(2,2,2-trifluoro-1-methyl-ethoxy)-phenyl]-[1-(5-methyl-[1,3,4]oxadiazol-2-yl)-3-aza-bicyclo[3.1.0]hex-3-yl]-methanone], 89 nM.
Compound `Cc1nc(C23CC2CN(C(=O)c2cc(S(C)(=O)=O)ccc2O[C@@H](C)C(F)(F)F)C3)cs1` (mixture of isomers) [Example 25, [5-Methanesulfonyl-2-(2,2,2-trifluoro-1-methyl-ethoxy)-phenyl]-[1-(2-methyl-thiazol-4-yl)-3-aza-bicyclo[3.1.0]hex-3-yl]-methanone] displayed an IC50 of 22 nM.
For `CCS(=O)(=O)c1ccc(O[C@H](C)C(F)(F)F)c(C(=O)N2CC3CC3(c3noc(C(F)(F)F)n3)C2)c1` (single isomer, unassigned) [Example 94, [5-Ethanesulfonyl-2-(2,2,2-trifluoro-1-methyl-ethoxy)-phenyl]-[1-(5-trifluoromethyl-[1,2,4]oxadiazol-3-yl)-3-aza-bicyclo[3.1.0]hex-3-yl]-methanone] the value was 2910 nM.
To `Cc1c(C23CC2CN(C(=O)c2cc(S(C)(=O)=O)ccc2O[C@@H](C)C(F)(F)F)C3)noc1C(F)(F)F` (single isomer, unassigned) [Example 165] belongs 394 nM; to `CCS(=O)(=O)c1ccc(O[C@@H](C)C(F)(F)F)c(C(=O)N2CC3CC3(c3cc(C(F)(F)F)on3)C2)c1` (mixture of isomers) [Example 102, [5-Ethanesulfonyl-2-(2,2,2-trifluoro-1-methyl-ethoxy)-phenyl]-[1-(5-trifluoromethyl-isoxazol-3-yl)-3-aza-bicyclo[3.1.0]hex-3-yl]-methanone], 18 nM.
For `C[C@H](Oc1ccc(S(C)(=O)=O)cc1C(=O)N1CC2CC2(c2noc(C(F)(F)F)n2)C1)C(F)(F)F` (single isomer, unassigned) [Example 2, [5-Methanesulfonyl-2-(2,2,2-trifluoro-1-methyl-ethoxy)-phenyl]-[1-(5-trifluoromethyl-[1,2,4]oxadiazol-3-yl)-3-aza-bicyclo[3.1.0]hex-3-yl]-methanone] the value was 18 nM; for `CCS(=O)(=O)c1ccc(O[C@H](C)C(F)(F)F)c(C(=O)N2CC3CC3(c3noc(C(F)(F)F)n3)C2)c1` (single isomer, unassigned) [Example 93, [5-Ethanesulfonyl-2-(2,2,2-trifluoro-1-methyl-ethoxy)-phenyl]-[1-(5-trifluoromethyl-[1,2,4]oxadiazol-3-yl)-3-aza-bicyclo[3.1.0]hex-3-yl]-methanone], 11 nM; for `C[C@@H](Oc1ccc(S(C)(=O)=O)cc1C(=O)N1CC2CC2(c2nc(C3(C(F)(F)F)CC3)no2)C1)C(F)(F)F` (mixture of isomers) [Example 156, [5-Methanesulfonyl-2-(2,2,2-trifluoro-1-methyl-ethoxy)-phenyl]-{1-[3-(1-trifluoromethyl-cyclopropyl)-[1,2,4]oxadiazol-5-yl]-3-aza-bicyclo[3.1.0]hex-3-yl}-methanone], 11 nM.
Regarding `C[C@@H](Oc1ccc(S(C)(=O)=O)cc1C(=O)N1CC2CC2(c2nnc(C3CC3)o2)C1)C(F)(F)F` (mixture of isomers) [Example 146, [1-(5-Cyclopropyl-[1,3,4]oxadiazol-2-yl)-3-aza-bicyclo[3.1.0]hex-3-yl]-[5-methanesulfonyl-2-(2,2,2-trifluoro-1-methyl-ethoxy)-phenyl]-methanone], the IC50 was 9 nM.
Take `C[C@H](Oc1ccc(S(C)(=O)=O)cc1C(=O)N1CC2CC2(c2noc(C(F)(F)F)n2)C1)C(F)(F)F` (single isomer, unassigned) [Example 3, [5-Methanesulfonyl-2-(2,2,2-trifluoro-1-methyl-ethoxy)-phenyl]-[1-(5-trifluoromethyl-[1,2,4]oxadiazol-3-yl)-3-aza-bicyclo[3.1.0]hex-3-yl]-methanone]: 1020 nM corresponded to half-maximal inhibition (IC50).
To `C[C@H](Oc1ccc(S(C)(=O)=O)cc1C(=O)N1CC2CC2(c2ncccn2)C1)C(F)(F)F` (mixture of isomers) [Example 14, [5-Methanesulfonyl-2-(2,2,2-trifluoro-1-methyl-ethoxy)-phenyl]-(1-pyrimidin-2-yl-3-aza-bicyclo[3.1.0]hex-3-yl)-methanone] belongs 67 nM; to `C[C@H](Oc1ccc(S(C)(=O)=O)cc1C(=O)N1CC2CC2(c2noc(C3CC3)n2)C1)C(F)(F)F` (mixture of isomers) [Example 9, [1-(5-Cyclopropyl-[1,2,4]oxadiazol-3-yl)-3-aza-bicyclo[3.1.0]hex-3-yl]-[5-methanesulfonyl-2-(2,2,2-trifluoro-1-methyl-ethoxy)-phenyl]-methanone], 18 nM.
